Data on eight compounds can be found in PMC6656724 (Communications Biology, 2019).

In data set [1] the target is T1, Pseudomonas fluorescens KMO (PfKMO) (Pseudomonas fluorescens, UniProt Q84HF5, C252S/C461S).
T1 construct: made in house; host or cells: E. coli BL21 (DE3)
Nature of the data set: biochemical. In outline: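 NADPH consumption followed at 340 nm, initial rates from linear fits, triplicate. IC50 from % inhibition vs inhibitor concentration fitted to the Morrison equation.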

Another data set deals with K562 cells. As to the kind of experiment: Competition assay for uptake of riboflavin. The data set is classed as cell-based, Human. Also noted: key to Mean FL2-A, compound only: relative fluorescence units. The conditions noted are these: for Mean FL2-A, compound + riboflavin (RF): 1 µM riboflavin plus 100 µM compound; for Inhibition of riboflavin uptake: 1 µM riboflavin; for Inhibition of riboflavin uptake / Mean FL2-A, compound only: compound 100 µM. On the procedure: Riboflavin transporters are equilibrative rather than concentrative, and the uptake of the inhibitors would be hard to measure directly. To assess whether the KMO inhibitors were substrates for riboflavin transporters, we assessed their ability to compete with riboflavin for uptake into cells. Riboflavin is intensely fluorescent, and is taken up in human cells by three main transporters SLC52A1, SLC52A2 and SLC52A3[28]. […] Consequently, we incubated cells with 1 μM riboflavin in the absence and presence of the various KMO inhibitors. There was a background fluorescence of some 100 relative fluorescence units. […] The data are summarised in Fig. 3c, and are consistent with the view that at least some of the KMO inhibitor uptake is likely to go via riboflavin transporters.
Supplementary Figure 15. A. Uptake of riboflavin into K562 cells. K562 cells were suspended in Dulbecco's phosphate-buffered saline (DPBS) supplemented with 5 mM glucose + 1 % fetal bovine serum (FBS) at a density of 0.5 x 10^6 cells/mL.
Compounds were added to Eppendorf tubes and DMSO removed through drying (vacuum centrifuge). Riboflavin was present at 1 µM and inhibitor 1 or prodrugs at 100 µM. 500 µL cells were added to Eppendorf tubes (containing the compound(s) of interest) and fluorescence measured immediately (excitation 488 nm, emission 525 ± 25nm) in a SONY SH800 flow cytometer over 300 s. Cells were maintained at 37 ℃ throughout in a water bath. Each symbol is the mean fluorescence of ~30 cells observed over a period of 1s. Purple, 1 µM riboflavin only; Red, 100 µM compound only; Blue, 1 µM riboflavin plus 100 µM compound; Green, no additions (control).
Note that the external concentration of riboflavin was rather critical, as the riboflavin transporters also catalyse exchange reactions with their various substrates. B.
Structures of KMO inhibitors and prodrugs and riboflavin, and their maximum common substructures (shown as a blue oval on 1). C. Gating strategy employed in this assay. Gate applied to K562 cell population is marked with a black line. SSC, side scatter, FSC, Forward scatter.
(1 picture or pasted object on this page, not shown here)

Another data set concerns the target T2, Homo sapiens KMO (HsKMO) (Homo sapiens, UniProt O15229).
T2 construct: GST; made in house
As to the kind of experiment: KMO inhibition assay, NADPH oxidation at 340 nm (HsKMO). The data set is classed as biochemical.

Data set [2] can be described thus: Kinetic solubility in PBS, pH 7.4 (2% DMSO). Type of data set: physicochemical. The following applies: for solubility at 2 h: PBS with 2% DMSO, pH 7.4, aqueous buffer, kinetic from dmso stock, PBS, pH 7.4 (2% DMSO).
Data set [3] can be described thus: Stability in mouse hepatic microsomes. The conditions noted are these: for half-life at 1 µM: mouse, pooled liver microsomes.
Procedure: 3.6.3 Compound stability in mouse hepatic microsomes and rat hepatocytes
A microsomal stability assay was performed as described in the BioFocus Standard
Operating Procedure ADME-SOP-83, using pooled hepatic mouse
Test and control compounds (midazolam,
dextromethorphan), were prepared in DMSO and incubated at an initial concentration
in the presence of the cofactor, NADPH (1 mM). Aliquots were removed at 0, 5, 10,
20 and 40 minutes for termination of reactions and compound extraction with ACN
containing an analytical internal standard. Samples were centrifuged and the
supernatant fractions analysed for parent compound by mass spectrometry (LC-
MS/MS). The amount of compound remaining (expressed as %) was determined from
the MS response in each sample relative to that in the T = 0 samples (normalised for
internal standard). Ln plots of the % remaining were used to determine the half-life
the slope of the Ln % remaining vs time curve. The in vitro intrinsic clearance Clint
The mark [4] stands for this setting: Half-life Mean, mouse hepatic microsomes.
The mark [5] stands for this setting: Half-life n=1, mouse hepatic microsomes.
[6] abbreviates: Half-life n=2, mouse hepatic microsomes.

Molecules are shown by their SMILES. Values after ≈ are worked out from the molar mass of the structure shown. “Also recorded” adds a separate entry of the source. Like-named read-outs stand apart in the source and are kept apart here.

T1 sequence (Q84HF5 whole entry C252S/C461S): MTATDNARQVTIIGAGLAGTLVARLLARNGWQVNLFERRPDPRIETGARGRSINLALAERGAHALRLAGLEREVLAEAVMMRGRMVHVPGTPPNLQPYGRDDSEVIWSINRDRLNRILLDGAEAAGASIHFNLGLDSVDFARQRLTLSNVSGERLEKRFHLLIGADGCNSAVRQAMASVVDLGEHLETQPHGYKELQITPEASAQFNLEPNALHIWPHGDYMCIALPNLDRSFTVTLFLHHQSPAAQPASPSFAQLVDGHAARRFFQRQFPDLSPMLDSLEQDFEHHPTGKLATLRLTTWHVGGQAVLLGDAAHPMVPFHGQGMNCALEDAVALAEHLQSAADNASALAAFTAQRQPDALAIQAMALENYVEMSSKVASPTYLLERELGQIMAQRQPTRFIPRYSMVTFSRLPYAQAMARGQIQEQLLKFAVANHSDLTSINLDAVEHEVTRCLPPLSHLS
T2 sequence (O15229 whole entry): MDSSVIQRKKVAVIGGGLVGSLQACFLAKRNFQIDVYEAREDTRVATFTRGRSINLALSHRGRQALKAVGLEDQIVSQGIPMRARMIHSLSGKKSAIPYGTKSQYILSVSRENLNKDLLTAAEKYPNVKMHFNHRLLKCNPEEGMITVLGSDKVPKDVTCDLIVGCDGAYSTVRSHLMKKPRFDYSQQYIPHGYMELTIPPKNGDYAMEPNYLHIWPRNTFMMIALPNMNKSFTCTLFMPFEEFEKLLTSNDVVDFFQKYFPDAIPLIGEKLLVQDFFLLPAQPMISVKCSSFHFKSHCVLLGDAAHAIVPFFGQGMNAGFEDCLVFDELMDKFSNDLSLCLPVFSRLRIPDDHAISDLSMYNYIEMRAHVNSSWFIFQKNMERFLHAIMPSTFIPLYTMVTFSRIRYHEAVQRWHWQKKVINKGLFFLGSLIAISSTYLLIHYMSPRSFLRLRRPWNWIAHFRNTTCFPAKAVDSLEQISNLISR

Regarding `COC(=O)CN1C(=O)COc2cc(C)c(Cl)c(C)c21` [1a], the results for the IC50 (in data set [1]; on Homo sapiens KMO (HsKMO)) were greater than 500 µM and roughly 500 µM, respectively. For the same compound, the entries for the “Mean FL2-A, compound + riboflavin (RF)” value in the data set on K562 cells (time 1), with K562 cells (time 2) and in the data set on K562 cells (time 3) were 66.6886, 77.0559 and 76.3441, respectively. The “Inhibition of riboflavin uptake” value in the data set with K562 cells was “inhibit riboflavin uptake”. For the same compound, the “Mean FL2-A, compound only” value with K562 cells (time 1) is recorded as 62.8068; in the data set on K562 cells (time 2), 65.3939; in the data set with K562 cells (time 3), 65.9534.
Regarding `CCOC(=O)CN1C(=O)COc2cc(C)c(Cl)c(C)c21` [1b], the IC50 is greater than 300 µM in data set [1] and greater than 500 µM on Homo sapiens KMO (HsKMO). For the same compound, the results for the “Mean FL2-A, compound + riboflavin (RF)” value in the data set on K562 cells (time 1), in the data set with K562 cells (time 2) and with K562 cells (time 3) were 68.4214, 59.9856 and 60.5407, respectively. Besides, the “Inhibition of riboflavin uptake” value with K562 cells is listed as “inhibit riboflavin uptake; also recorded: higher inhibition”. The “Mean FL2-A, compound only” value in the data set on K562 cells (time 1) was determined as 59.4089; in the data set with K562 cells (time 2), 74.4694; with K562 cells (time 3), 63.9701.
For `Cc1cc2c(c(C)c1Cl)N(CC(=O)OC(C)C)C(=O)CO2` [1c], the IC50 (in data set [1]; on Homo sapiens KMO (HsKMO)) was greater than 300 µM in each case. For the same compound, the “Mean FL2-A, compound + riboflavin (RF)” value in the data set on K562 cells (time 1) worked out at 59.0947; with K562 cells (time 2) it was 60.924; in the data set on K562 cells (time 3), 73.4972. Besides, the “Inhibition of riboflavin uptake” value with K562 cells was “inhibit riboflavin uptake”. The “Mean FL2-A, compound only” value was 60.7763 with K562 cells (time 1), 66.3048 in the data set with K562 cells (time 2) and 65.3995 with K562 cells (time 3).
Take `Cc1cc2c(c(C)c1Cl)N(Cc1nn[nH]n1)C(=O)CO2` [1h, 6-chloro-5,7-dimethyl-4-(2H-tetrazol-5-ylmethyl)-1,4-benzoxazin-3-one]: the IC50 in data set [1] worked out at 17 ± 0.43 µM; on Homo sapiens KMO (HsKMO), 1.28 ± 0.08 µM.
With `Cc1cc2c(c(C)c1Cl)N(CC(=O)O)C(=O)CO2` [compound 1, (6-chloro-5,7-dimethyl-3-oxo-2,3-dihydro-4H-1,4-benzoxazin-4-yl) acetic acid], the figures for the “Mean FL2-A, compound + riboflavin (RF)” value with K562 cells (time 1), with K562 cells (time 2) and with K562 cells (time 3) were 57.8501, 68.195 and 76.5831, respectively. Besides, the “Inhibition of riboflavin uptake” value in the data set on K562 cells is “inhibit riboflavin uptake”. Also, the “Mean FL2-A, compound only” value with K562 cells (time 1) is given as 58.5977; with K562 cells (time 2), 60.0072; in the data set on K562 cells (time 3) it was 67.7034. Moreover, the “Kinetic solubility (in words)” value in data set [2] is “good”. Moreover, the figures for the solubility at 2 h in data set [2] (read-out: Solubility Mean), in data set [2] (read-out: Solubility n=1) and in data set [2] (read-out: Solubility n=2) were 193 µM (≈ 52 µg/mL), 191 µM (≈ 51.5 µg/mL) and 194 µM (≈ 52.3 µg/mL), respectively. In addition, the Mean intrinsic clearance in data set [3] (mouse hepatic microsomes) is < 28 µL/min/mg microsome protein. Moreover, the half-life at 1 µM in data set [3] (setting [4]), in data set [3] (setting [5]) and in data set [3] (setting [6]) was greater than 1.67 h each time.
As for `Oc1ccc(-c2csc3nc(-c4ccccc4)nn23)c(O)c1` [compound 3, 4-(2-phenyl[1,2,4]triazolo[5,1-b][1,3]thiazol-6-yl)benzene-1,3-diol], the IC50 in data set [1] was 74.7 ± 8 µM; at Homo sapiens KMO (HsKMO) it was 2.3 µM. Moreover, the results for the solubility at 2 h in data set [2] (read-out: Solubility Mean), in data set [2] (read-out: Solubility n=1) and in data set [2] (read-out: Solubility n=2) were 67 µM (≈ 20.7 µg/mL), 68 µM (≈ 21 µg/mL) and 65 µM (≈ 20.1 µg/mL), respectively. Besides, the Mean intrinsic clearance in data set [3] (mouse hepatic microsomes) is recorded as 49 µL/min/mg microsome protein. Also, the half-life at 1 µM in data set [3] (setting [4]) amounted to 0.983 h; in data set [3] (setting [5]), 0.8 h; in data set [3] (setting [6]) it was 1.15 h.
Regarding `Cn1c(C(=O)N[C@@H](C(=O)O)c2ccccc2)cc2cc(F)ccc21` [compound 5, (R)-2-(5-fluoro-1-methyl-1H-indole-2-carboxamido)-2-phenylacetic acid], the results for the IC50 (in data set [1]; on Homo sapiens KMO (HsKMO)) were 123 ± 8 µM and 55.3 µM, respectively. Besides, the solubility at 2 h in data set [2] (read-out: Solubility Mean) is 185 µM (≈ 60.4 µg/mL); in data set [2] (read-out: Solubility n=1), 186 µM (≈ 60.7 µg/mL); in data set [2] (read-out: Solubility n=2), 183 µM (≈ 59.7 µg/mL). In addition, the Mean intrinsic clearance in data set [3] (mouse hepatic microsomes) is < 28 µL/min/mg microsome protein. Further, the half-life at 1 µM in data set [3] (setting [4]), in data set [3] (setting [5]) and in data set [3] (setting [6]) was greater than 1.67 h throughout.
Turning to `CC(CSc1ccc(Cl)cc1)C(=O)O` (centres unmarked) [compound 6, 3-[(4-chlorophenyl)thio]-2-methylpropanoic acid], the IC50 in data set [1] is 85.6 ± 4.4 µM; on Homo sapiens KMO (HsKMO), 68.6 µM. For the same compound, the results for the solubility at 2 h in data set [2] (read-out: Solubility Mean), in data set [2] (read-out: Solubility n=1) and in data set [2] (read-out: Solubility n=2) were 187 µM (≈ 43.1 µg/mL), 186 µM (≈ 42.9 µg/mL) and 188 µM (≈ 43.4 µg/mL), respectively. The Mean intrinsic clearance in data set [3] (mouse hepatic microsomes) is < 28 µL/min/mg microsome protein. Besides, the half-life at 1 µM in data set [3] (setting [4]), in data set [3] (setting [5]) and in data set [3] (setting [6]) was greater than 1.67 h each time.
